The test system of series [1] is Streptococcus mutans. The series can be described thus: Antibiofilm activity against Streptococcus mutans ATCC 25175 assessed as inhibition of biofilm formation up to 96 ug/mL after 24 hrs by crystal violet staining-based assay. Format: functional, organism-based.
A further series concerns Porphyromonas gingivalis. The series can be described thus: Antibiofilm activity against Porphyromonas gingivalis ATCC 33277 assessed as inhibition of biofilm formation up to 96 ug/mL after 24 hrs by crystal violet staining based assay. Format: functional, organism-based.
Series [2] concerns Candida albicans. As to the kind of experiment: Antiadherence activity against FITC-labelled Candida albicans ATCC 28366 assessed as reduction in bacterial adhesion to hydroxylapatite up to 96 ug/mL after 1 hr by fluorescence assay relative to control. Format: functional.
For series [3], the system named is Actinomyces naeslundii. As to the kind of experiment: Antibiofilm activity against Actinomyces naeslundii ATCC 49340 assessed as prevention of homogenous biofilm formation at 96 ug/mL after 24 hrs by crystal violet staining-based assay. Format: functional, organism-based.
The subject of series [4] is Streptococcus mutans. As to the kind of experiment: Antiadherence activity in FITC-labelled Streptococcus mutans ATCC 25175 assessed as reduction in bacterial adhesion to hydroxylapatite up to 96 ug/mL after 1 hr fluorescence assay. Format: functional, organism-based.
In another series the test system is Escherichia coli. As to the kind of experiment: Growth inhibition of Escherichia coli ATCC 15939 incubated for 24 hrs under aerobic condition by microdilution method. Format: organism-based.
Another series concerns Fusobacterium nucleatum. The series can be described thus: Antibiofilm activity against Fusobacterium nucleatum ATCC 25586 assessed as inhibition of biofilm formation up to 96 ug/mL after 24 hrs by crystal violet staining based assay. Format: functional, organism-based.
Series [5] deals with Limosilactobacillus fermentum. As to the kind of experiment: Antibiofilm activity against Lactobacillus fermentum LacB1 assessed as inhibition of biofilm formation up to 96 ug/mL after 24 hrs by crystal violet staining based assay. Format: functional, organism-based.
Another series has as its system Pseudomonas aeruginosa. As to the kind of experiment: Growth inhibition of Pseudomonas aeruginosa ATCC 10145 incubated for 24 hrs under aerobic condition by microdilution method. Format: organism-based.
For series [6], the system named is Candida albicans. The series can be described thus: Antibiofilm activity against Candida albicans ATCC 28366 assessed as reduction of biofilm formation after 24 hrs by crystal violet staining based assay. Format: functional, organism-based.
For another series, the system named is Staphylococcus aureus. The series can be described thus: Growth inhibition of Staphylococcus aureus ATCC 6538 incubated for 24 hrs under aerobic condition by microdilution method. Format: organism-based. As to conditions: in vitro.
The test system of series [7] is Candida albicans. As to the kind of experiment: Disruption of Candida albicans ATCC 28366 pre-formed mature biofilm assessed as reduction in biofilm biomass at 96 ug/mL after 12 hrs by crystal violet staining based assay. Format: functional, organism-based.
Series [8] deals with Streptococcus mutans. The series can be described thus: Disruption of Streptococcus mutans ATCC 25175 pre-formed mature biofilm assessed as reduction in biofilm biomass at 96 ug/mL after 12 hrs by crystal violet staining based assay. Format: functional, organism-based.
Series [9] has as its system Streptococcus mutans. As to the kind of experiment: Inhibition of planktonic growth of Streptococcus mutans ATCC 25175 up to 96 ug/mL after 24 hrs relative to control. Format: organism-based.
A further series has as its system Listeria monocytogenes. As to the kind of experiment: Growth inhibition of Listeria monocytogenes WSLC 1001 incubated for 24 hrs under aerobic condition by microdilution method. Format: organism-based. As to conditions: in vitro.
In series [10] the test system is Candida albicans. The series can be described thus: Antibiofilm activity against Candida albicans ATCC 28366 assessed as reduction of biofilm formation at 24 to 48 ug/mL after 24 hrs by crystal violet staining based assay. Format: functional, organism-based.
The subject of series [11] is Candida albicans. As to the kind of experiment: Growth inhibition of Candida albicans ATCC 28366 up to 96 ug/ml measured after 24 hrs by microdilution method. Format: organism-based. As to conditions: in vitro.
In series [12] the test system is Streptococcus mutans. As to the kind of experiment: Antibiofilm activity against Streptococcus mutans ATCC 25175 assessed as inhibition of biofilm formation at 6 to 12 ug/mL after 24 hrs by crystal violet staining-based assay. Format: functional, organism-based.
Series [13] has as its system Actinomyces naeslundii. As to the kind of experiment: Antibiofilm activity against Actinomyces naeslundii ATCC 49340 assessed as reduction of biofilm formation at 48 ug/mL after 24 hrs by crystal violet staining based assay. Format: functional, organism-based.
The subject of series [14] is Actinomyces naeslundii. The series can be described thus: Antibiofilm activity against Actinomyces naeslundii ATCC 49340 assessed as reduction of biofilm formation by visual analysis. Format: functional, organism-based.
Series [15] deals with Actinomyces naeslundii. As to the kind of experiment: Antibiofilm activity against Actinomyces naeslundii ATCC 49340 assessed as inhibition of bacterial adhesion up to 96 ug/mL after 24 hrs by crystal violet staining based assay. Format: functional, organism-based.
Series [16] relates to Actinomyces naeslundii. As to the kind of experiment: Antibiofilm activity against Actinomyces naeslundii ATCC 49340 assessed as prevention of homogenous biofilm formation up to 96 ug/mL after 24 hrs by crystal violet staining based assay. Format: functional, organism-based.
Series [17] in a line: Solubility of the compound in water. Format: physicochemical. As to conditions: buffer.
Another series has as its system Enterococcus faecalis. As to the kind of experiment: Antimicrobial activity against vancomycin-resistant Enterococcus faecalis measured after 24 hrs by agar-dilution method. Format: functional.
For series [18], the system named is Streptococcus mutans. As to the kind of experiment: Bactericidal activity against Streptococcus mutans ATCC 25175. Format: organism-based.
Series [19] concerns Candida albicans. As to the kind of experiment: Antibiofilm activity against Candida albicans ATCC 28366 assessed as reduction of biofilm formation up to 96 ug/mL after 24 hrs by crystal violet staining based assay. Format: functional, organism-based.
Series [20] deals with Actinomyces naeslundii. The series can be described thus: Antibiofilm activity against Actinomyces naeslundii ATCC 49340 assessed as reduction in biofilm formation up to 96 ug/mL after 24 hrs by crystal violet staining-based assay. Format: functional, organism-based.
Series [21] has as its target Mu-type opioid receptor (Rattus norvegicus) (UniProt P33535). The series can be described thus: Displacement of [3H]DAMGO from mu-opioid receptor in Long-Evans rat brain after 1 hr by liquid scintillation counting method. Format: tissue-based.
For series [22], the system named is Streptococcus mutans. The series can be described thus: Growth inhibition of Streptococcus mutans ATCC 25175 incubated for 24 hrs under aerobic condition by microdilution method. Format: organism-based.

Values after ≈ are worked out from the molar mass of the structure shown. Active and inactive are the calls of the source. Unless noted, the calls are words filed in the database; no cut-off is given here.

Mu-type opioid receptor (Rattus norvegicus), sequence (P33535 whole entry): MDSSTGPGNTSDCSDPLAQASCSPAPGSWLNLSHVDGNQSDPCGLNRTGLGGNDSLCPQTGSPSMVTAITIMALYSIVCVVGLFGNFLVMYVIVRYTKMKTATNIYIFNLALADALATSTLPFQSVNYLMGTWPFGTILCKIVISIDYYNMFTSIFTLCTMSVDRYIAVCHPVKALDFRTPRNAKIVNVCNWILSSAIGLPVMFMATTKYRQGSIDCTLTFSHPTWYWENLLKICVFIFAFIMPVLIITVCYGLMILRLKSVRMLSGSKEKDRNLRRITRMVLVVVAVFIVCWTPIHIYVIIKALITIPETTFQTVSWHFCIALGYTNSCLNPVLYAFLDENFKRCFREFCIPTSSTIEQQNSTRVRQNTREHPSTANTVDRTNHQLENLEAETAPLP

In the case of `O=C1N[C@@H](Cc2ccc(OCc3ccccc3)cc2)C(=O)N[C@H]1Cc1ccccc1`, in the series on Streptococcus mutans [1], the inhibition entry is “Active”. The inhibition entry (in the series on Porphyromonas gingivalis; with Fusobacterium nucleatum; in series [5]) was “inactive” each time. Besides, the outcome in the series on Candida albicans [2], in the series on Streptococcus mutans [4], with Candida albicans [10] and with Streptococcus mutans [12] was Active. The outcome in the series with Actinomyces naeslundii [3], in the series on Candida albicans [7] and in the series on Streptococcus mutans [8] was inactive. In addition, the MIC in the series on Escherichia coli, with Pseudomonas aeruginosa, in the series on Staphylococcus aureus and against Listeria monocytogenes was over 192 µg/mL throughout. Further, the Activity result with Candida albicans [6] is “Dose-dependent effect”. Moreover, the “growth inhibition (GI)” value in the series on Streptococcus mutans [9] and in the series on Candida albicans [11] was “Non-Toxic” throughout.

Regarding `O=C1N[C@@H](Cc2ccc(OCc3ccccc3)cc2)C(=O)N[C@H]1Cc1ccc(OCc2ccccc2)cc1`, the inhibition result with Streptococcus mutans [1], in the series on Actinomyces naeslundii [13] and in the series on Actinomyces naeslundii [14] was “Active” each time. For the same molecule, the inhibition result (with Porphyromonas gingivalis; in the series on Fusobacterium nucleatum; in series [5]; with Actinomyces naeslundii [15]) was “inactive” in each case. For the same molecule, the result in the series on Candida albicans [2], with Streptococcus mutans [4], in the series with Candida albicans [10], in the series with Streptococcus mutans [12] and with Actinomyces naeslundii [16] was Active. Also, the MIC with Escherichia coli, against Pseudomonas aeruginosa, in the series on Staphylococcus aureus and in the series with Listeria monocytogenes was over 192 µg/mL in each case. Also, in the series with Candida albicans [6], the Activity entry is “Dose-dependent effect”. The result in the series with Candida albicans [7] and with Streptococcus mutans [8] was inactive. For the same molecule, the “growth inhibition (GI)” value with Streptococcus mutans [9] and with Candida albicans [11] was “Non-Toxic” each time.

For `O=C1N[C@H](Cc2ccc(OCc3ccccc3)cc2)C(=O)N[C@@H]1Cc1ccc(OCc2ccccc2)cc1`, the inhibition entry in the series with Streptococcus mutans [1], in the series with Actinomyces naeslundii [13] and with Actinomyces naeslundii [14] was “Active” each time. Moreover, the inhibition result (in the series on Porphyromonas gingivalis; in the series on Fusobacterium nucleatum; in series [5]; in the series on Actinomyces naeslundii [15]) was “inactive” in each case. The result in the series with Candida albicans [2], in the series on Streptococcus mutans [4], in the series with Candida albicans [10], with Streptococcus mutans [12] and in the series on Actinomyces naeslundii [16] was Active. Further, the MIC with Escherichia coli, in the series with Pseudomonas aeruginosa, against Staphylococcus aureus and against Listeria monocytogenes was over 192 µg/mL each time. Further, the Activity result in the series on Candida albicans [6] was “Dose-dependent effect”. The result in the series with Candida albicans [7] and with Streptococcus mutans [8] was inactive. Moreover, the “growth inhibition (GI)” value in the series with Streptococcus mutans [9] and with Candida albicans [11] was “Non-Toxic” throughout.

`O=C1N[C@H](Cc2ccc(OCc3ccccc3)cc2)C(=O)N[C@H]1Cc1ccccc1`: the inhibition result (with Streptococcus mutans [1]; with Porphyromonas gingivalis; with Fusobacterium nucleatum; in series [5]) was “inactive” each time. The MIC in the series on Escherichia coli, against Pseudomonas aeruginosa, with Staphylococcus aureus and against Listeria monocytogenes was over 192 µg/mL in each case. Besides, the “growth inhibition (GI)” value in the series on Streptococcus mutans [9] is recorded as “Non-Toxic”. Also, the solubility result in series [17] is on record as “Insoluble”.

On to `CC(C)C[C@@H]1NC(=O)[C@@H]2CCCN2C1=O`, for which the inhibition entry with Streptococcus mutans [1], in the series on Porphyromonas gingivalis and in the series on Fusobacterium nucleatum was “inactive” throughout. Besides, in the series with Enterococcus faecalis, the MIC worked out at 12.5 µg/mL (≈ 59.4 µM). Moreover, the “growth inhibition (GI)” value in the series with Streptococcus mutans [9] is on record as “Non-Toxic”.

As to `O=C1N[C@H](Cc2ccc(OCc3ccccc3)cc2)C(=O)N[C@@H]1Cc1ccccc1`, the inhibition entry with Streptococcus mutans [1], with Actinomyces naeslundii [13] and in the series on Actinomyces naeslundii [14] was “Active” in each case. The inhibition result (with Porphyromonas gingivalis; with Fusobacterium nucleatum; in [5]; in the series with Actinomyces naeslundii [15]) was “inactive” throughout. For the same molecule, the result with Candida albicans [2], in the series with Streptococcus mutans [4], in the series with Candida albicans [10], with Streptococcus mutans [12] and with Actinomyces naeslundii [16] was Active. Besides, the MIC against Escherichia coli, with Pseudomonas aeruginosa, in the series on Staphylococcus aureus and in the series with Listeria monocytogenes was over 192 µg/mL throughout. In addition, in the series with Candida albicans [6], the Activity result is “Dose-dependent effect”. In addition, the result in the series with Candida albicans [7] and with Streptococcus mutans [8] was inactive. Further, the “growth inhibition (GI)” value in the series with Streptococcus mutans [9] and in the series with Candida albicans [11] was “Non-Toxic” each time.

For the molecule `O=C1N[C@H](Cc2ccccc2)C(=O)N[C@H]1Cc1ccc(OCc2ccccc2)cc1`, the inhibition entry in the series with Streptococcus mutans [1], in the series on Actinomyces naeslundii [13] and with Actinomyces naeslundii [14] was “Active” in each case. In addition, the inhibition result (in the series with Porphyromonas gingivalis; in the series with Fusobacterium nucleatum; in [5]; in the series on Actinomyces naeslundii [15]) was “inactive” throughout. The result in the series on Candida albicans [2], in the series on Streptococcus mutans [4], in the series with Candida albicans [10], with Streptococcus mutans [12] and with Actinomyces naeslundii [16] was Active. For the same molecule, the MIC against Escherichia coli, with Pseudomonas aeruginosa, in the series on Staphylococcus aureus and against Listeria monocytogenes was over 192 µg/mL each time. Also, the Activity result in the series with Candida albicans [6] is “Dose-dependent effect”. Besides, the outcome with Candida albicans [7] and in the series with Streptococcus mutans [8] was inactive. In addition, the “growth inhibition (GI)” value in the series on Streptococcus mutans [9] and with Candida albicans [11] was “Non-Toxic” in each case.

With `O=C1N[C@@H](Cc2ccc(O)cc2)C(=O)N[C@H]1Cc1ccc(O)cc1`, the inhibition result (in the series on Streptococcus mutans [1]; in the series on Porphyromonas gingivalis; in the series on Fusobacterium nucleatum; in [5]) was “inactive” each time. In the series with Streptococcus mutans [18], this molecule returned an MBC of over 192 µg/mL. Moreover, the Activity in the series with Candida albicans [2] turned out to be 20%. For the same molecule, the outcome (in the series with Candida albicans [19]; in [21]) was Active. Also, the result in the series on Streptococcus mutans [4] and with Actinomyces naeslundii [20] was inactive. Also, the MIC is over 192 µg/mL in the series with Escherichia coli; over 192 µg/mL with Pseudomonas aeruginosa; over 192 µg/mL in the series on Staphylococcus aureus; 96 µg/mL (≈ 294 µM) against Streptococcus mutans [22]; over 192 µg/mL with Listeria monocytogenes. For the same molecule, the “growth inhibition (GI)” value with Streptococcus mutans [9] is “Toxic”; with Candida albicans [11] it was “Non-Toxic”.
